Results on 14 compounds are retold here after patent US20260176289A1, “SMALL MOLECULE INHIBITORS OF KRAS PROTEINS” (Merck Sharp & Dohme LLC, priority 2022, published 2026).

In one assay the target is KRAS-WT (Homo sapiens, UniProt P01116). Nature of the assay: SOS-catalyzed nucleotide exchange assay (Procedure A, TR-FRET), KRAS-WT. The assay is classed as biochemical. Put shortly: (§1)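 TR-FRET readout (520/495 nm) of SOS-driven exchange of Bodipy-GDP for unlabeled GTP (3 mM) on biotinylated, Tb-streptavidin-bound RAS, after 60 min compound preincubation at room temperature. Exchange times and RAS/SOS levels: 60 min for WT (1/40 nM), G12C triple mutant (3/40 nM), NRAS (1.25/40 nM); 90 min for G12V (1.25/160 nM). Four-parameter logistic fits on normalized effect.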

The target of the next assay is KRAS-G12D (Homo sapiens, UniProt P01116, G12D). Kind of assay: SOS-catalyzed nucleotide exchange assay (Procedure A, TR-FRET), KRAS-G12D. The format is biochemical. The method, boiled down:
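Signal ratio (520/495 nm, excitation 340 nm) reports Bodipy-GDP retention on biotinylated RAS after SOS-catalyzed exchange with 3 mM GTP. SOS was 40 nM, except 160 nM for G12V. Room-temperature exchange lasted 60 min (90 min for G12V), following a 60 min compound preincubation.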
For orientation: TR-FRET usually uses a lanthanide donor and a delayed reading to cut background.

The target in another assay is KRAS-G12V (Homo sapiens, UniProt P01116, G12V). Kind of assay: SOS-catalyzed nucleotide exchange assay (Procedure A, TR-FRET), KRAS-G12V. The format is biochemical. The method, boiled down:
as §1

A further assay has as its system AsPC-1 cells. Nature of the assay: Cellular phospho-ERK assay, AsPC-1 cells (homozygous KRAS-G12D). The format is cell-based. The settings on record: Homo sapiens, read-out: AsPC1 pERK IC50. The method, boiled down:
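p-ERK/total ERK ratio, measured by AlphaLISA SureFire Ultra multiplex in lysates, was fitted to a 4-parameter logistic model for IC50. Compound exposure was 2 h at 37° C, 5% CO2, 10-point 1:3 dilutions from 30 μM final, on cells plated the previous night.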

Setting [1] is: nucleotide exchange, read-out: KRAS WT GNE IC50.
[2] abbreviates: nucleotide exchange, read-out: KRAS G12D GNE IC50.
The mark [3] stands for this setting: nucleotide exchange, read-out: KRAS G12V GNE IC50.
Setting [4] is: ASPC1, 2 h, 2 hours compound incubation.
Setting [5] is: KRAS WT GNE IC50, nucleotide exchange.
Setting [6] is: KRAS G12D GNE IC50, nucleotide exchange.
The mark [7] stands for this setting: KRAS G12V GNE IC50, nucleotide exchange.
Where [8] appears, read: ASPC1, 2 hours compound incubation.

Where two headings read alike, the source gives them in different places.

Chain of KRAS-G12V (P01116 with tags, fused parts or gaps isoform P01116-2 G12V): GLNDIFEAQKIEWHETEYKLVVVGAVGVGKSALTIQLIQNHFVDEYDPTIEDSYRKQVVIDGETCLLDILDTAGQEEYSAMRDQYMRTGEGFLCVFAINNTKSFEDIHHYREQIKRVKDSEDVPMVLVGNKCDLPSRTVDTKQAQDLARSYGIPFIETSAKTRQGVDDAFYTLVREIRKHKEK
Chain of KRAS-WT (P01116 with tags, fused parts or gaps isoform P01116-2): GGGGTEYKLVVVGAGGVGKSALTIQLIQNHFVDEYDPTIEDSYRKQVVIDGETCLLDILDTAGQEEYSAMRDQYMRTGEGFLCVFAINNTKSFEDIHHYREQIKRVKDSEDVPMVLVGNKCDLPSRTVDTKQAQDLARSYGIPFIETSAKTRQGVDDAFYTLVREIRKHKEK
Chain of KRAS-G12D (P01116 with tags, fused parts or gaps isoform P01116-2 G12D): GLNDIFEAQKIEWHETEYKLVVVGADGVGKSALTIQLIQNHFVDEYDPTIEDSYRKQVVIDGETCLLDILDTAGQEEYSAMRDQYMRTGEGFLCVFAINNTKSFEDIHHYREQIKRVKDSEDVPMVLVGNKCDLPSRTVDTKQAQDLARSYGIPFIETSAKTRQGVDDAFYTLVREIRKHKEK

For the compound `C[C@H]1CN(C[C@@]2(COc3nc(N4CCOC[C@@](C)(O)C4)c4c(n3)sc3c(-c5c(C6(F)CC6)c(Cl)cc6[nH]ncc56)nccc34)CC2(F)F)CCO1` [Ex-244, (6S)-4-(8-(6-chloro-5-(1-fluorocyclopropyl)-1H-indazol-4-yl)-2-(((R)-2,2-difluoro-1-(((S)-2-methylmorpholino)methyl)cy-clopropyl)methoxy)pyrido[4′, 3′:4,5]thieno[2,3-d]pyrimidin-4-yl)-6-methyl-1,4-oxazepan-6-ol], the IC50 (commonly the midpoint of a concentration-inhibition curve) on KRAS-WT (setting [1]) turned out to be 699 nM; at KRAS-G12D (setting [2]) it was 140 nM; on KRAS-G12V (setting [3]), 207 nM; in the assay on AsPC-1 cells (setting [4]), 711 nM.

`CC1CCc2ccc(F)c(-c3nccc4c3sc3nc(OC[C@@]56CCCN5C[C@H](F)C6)nc(N5CCOC[C@@](C)(O)C5)c34)c21` (single isomer, unassigned) [Ex-118]: the IC50 on KRAS-WT (setting [1]) was determined as 432 nM; at KRAS-G12D (setting [2]) it was 150 nM; at KRAS-G12V (setting [3]), 123 nM; in the assay with AsPC-1 cells (ASPC1, 2 h, KRAS-G12D, 2 hours), 1060 nM.

On to `CN(C)C[C@@]1(COc2nc(N3CCOC[C@@](C)(O)C3)c3c(n2)sc2c(-c4c(C5CC5)c(Cl)cc5[nH]ncc45)nncc23)CC1(F)F` [Ex-287, (6S)-4-(8-(6-chloro-5-cyclopropyl-1H-indazol-4-yl)-2-(((R)-1-((dimethylamino)methyl)-2,2-difluorocyclopropyl)meth-oxy)pyrimido[5′,4′:4,5]thi-eno[2,3-d]pyridazin-4-yl)-6-methyl-1,4-oxazepan-6-ol], for which the IC50 on KRAS-WT (setting [1]) is 10.2 nM; at KRAS-G12D (setting [2]), 5.28 nM; on KRAS-G12V (setting [3]) it was 15.9 nM; with AsPC-1 cells (ASPC1, 2 h, KRAS-G12D, 2 hours), 41.5 nM.

Take `C[C@@]1(O)COCCN(c2nc(OC[C@@]34CCCN3C[C@H](F)C4)nc3sc4c(-c5cccc(Cl)c5C5CC5)nncc4c23)C1` [Ex-284]: the IC50 at KRAS-WT (setting [1]) amounted to 578 nM; on KRAS-G12D (setting [2]), 195 nM; at KRAS-G12V (setting [3]), 138 nM; in the assay with AsPC-1 cells (ASPC1, 2 h, KRAS-G12D, 2 hours), 935 nM.

`COCC12CC(CN1C[C@@]1(COc3nc(N4CCOC[C@@](C)(O)C4)c4c(n3)sc3c(-c5c(C6(F)CC6)c(Cl)cc6[nH]ncc56)nccc34)CC1(F)F)C2` [Ex-258, (6S)-4-(8-(6-chloro-5-(1-fluorocyclopropyl)-1H-indazol-4-yl)-2-(((R)-2,2-difluoro-1-((1-(methoxymethyl)-2-azabicyclo[2.1.1]hexan-2-yl)methyl)cyclopropyl)metho-xy)pyrido[4′,3′:4,5]thieno[2,3-d]pyrimidin-4-yl)-6-methyl-1,4-oxazepan-6-ol]: the IC50 is 38.8 nM on KRAS-WT (setting [1]), 7 nM on KRAS-G12D (setting [2]), 25.2 nM at KRAS-G12V (setting [3]) and 124 nM in the assay with AsPC-1 cells (setting [4]).

As to `CC1=CCc2cc3[nH]ncc3c(-c3nccc4c3sc3nc(OC[C@@]56CCCN5C[C@H](F)C6)nc(N5CCOC[C@@](C)(O)C5)c34)c21` [Ex-106, (6S)-4-(2-(((2R,7aS)-2-fluorotetrahydro-1H-pyrrolizin-7a(5H)-yl)methoxy)-8-(5-methyl-1,7-dihydrocyclopenta[f]inda-zol-4-yl)pyrido[4′,3′:4,5]thieno [2,3-d]pyrimidin-4-yl)-6-methyl-1,4-oxazepan-6-ol], the IC50 at KRAS-WT (setting [1]) came out at 55.1 nM; at KRAS-G12D (setting [2]), 19.7 nM; at KRAS-G12V (setting [3]) it was 30.6 nM; with AsPC-1 cells (ASPC1, 2 h, KRAS-G12D, 2 hours) it was 128 nM.

With `CO[C@]12CC[C@H]1CN(C[C@@]1(COc3nc(N4CCOC[C@@](C)(O)C4)c4c(n3)sc3c(-c5c(C6(F)CC6)c(Cl)cc6[nH]ncc56)nccc34)CC1(F)F)C2` [Ex-260, (6S)-4-(8-(6-chloro-5-(1-fluorocyclopropyl)-1H-indazol-4-yl)-2-(((R)-2,2-difluoro-1-(((1R,5S)-1-methoxy-3-azabicyclo[3.2.0]heptan-3-yl)methyl)cyclopropyl)metho-xy)pyrido[4′,3′:4,5]thieno[2,3-d]pyrimidin-4-yl)-6-methyl-1,4-oxazepan-6-ol], the IC50 came out at 486 nM at KRAS-WT (setting [1]), 41.6 nM at KRAS-G12D (setting [2]), 185 nM on KRAS-G12V (setting [3]) and 1210 nM with AsPC-1 cells (setting [4]).

As for `C[C@@]1(O)COCCN(c2nc(OC[C@@]34CCCN3C[C@H](F)C4)nc3sc4c(-c5c6cc(F)ccc6cc6[nH]ncc56)nccc4c23)C1` [Ex-172, (6S)-4-(8-(6-fluoro-1H-benzo[f]indazol-4-yl)-2-(((2R,7aS)-2-fluorotetrahydro-1H-pyrrolizin-7a(5H)-yl)-methoxy)pyrido[4′,3′: 4,5]thieno[2,3-d]pyr-imidin-4-yl)-6-methyl-1,4-oxazepam-6-ol], the half-maximal inhibitory concentration (IC50) against KRAS-WT (setting [5]) turned out to be 72.4 nM; at KRAS-G12D (setting [6]), 34.1 nM; on KRAS-G12V (setting [7]), 49.2 nM; in the assay on AsPC-1 cells (setting [8]) it was 252 nM.

With `C[C@@]1(O)COCCN(c2nc(OC[C@@]34CCCN3C[C@H](F)C4)nc3sc4c(-c5c(C6(F)CC6)c(F)cc6[nH]ncc56)nccc4c23)C1` [Ex-53, (6S)-4-(8-(6-fluoro-5-(1-fluorocyclopropyl)-1H-indazol-4-yl)-2-(((2R,7aS)-2-fluorotetrahydro-1H-pyrrolizin-7a(5H)-yl)methoxy)pyrido[4′,3′:4,5]thi-eno[2,3-d]pyrimidin-4-yl)-6-methyl-1,4-oxazepan-6-ol], the IC50 on KRAS-WT (setting [1]) came to 91.2 nM; on KRAS-G12D (setting [2]), 26.4 nM; at KRAS-G12V (setting [3]), 46.7 nM; in the assay on AsPC-1 cells (ASPC1, 2 h, KRAS-G12D, 2 hours), 465 nM.

As for `C[C@H]1C[C@@H](COc2nc(N3CCOC[C@@](C)(O)C3)c3c(n2)sc2c(-c4c(C5CC5)c(C(F)(F)F)cc5[nH]ncc45)nccc23)N(C)C1` [Ex-82, (6S)-4-(8-(5-cyclopropyl-6-(trifluoromethyl)-1H-indazol-4-yl)-2-(((2S,4S)-1,4-dimethylpyrrolidin-2-yl)methoxy)pyrido[4′,3′:4,5]thi-eno[2,3-d]pyrimidin-4-yl)-6-methyl-1,4-oxazepan-6-ol], the IC50 came out at 54.6 nM on KRAS-WT (setting [1]); 31.2 nM at KRAS-G12D (setting [2]); 32.8 nM on KRAS-G12V (setting [3]); 592 nM with AsPC-1 cells (ASPC1, 2 h, KRAS-G12D, 2 hours).

As for `CCC1=CC(F)(F)c2cc3[nH]ncc3c(-c3nccc4c3sc3nc(OC[C@@]56CCCN5C[C@H](F)C6)nc(N5CCOC[C@@](C)(O)C5)c34)c21` [Ex-114, (6S)-4-(8-(5-ethyl-7,7-difluoro-1,7-dihydrocyclopenta[f]inda-zol-4-yl)-2-(((2R,7aS)-2-fluorotetrahydro-1H-pyrrolizin-7a(5H)-yl)methoxy)pyrido[4′,3′:4,5]thi-eno[2,3-d]pyrimidin-4-yl)-6-methyl-1,4-oxazepan-6-ol], the IC50 on KRAS-WT (setting [1]) is 380 nM; on KRAS-G12D (setting [2]) it was 165 nM; on KRAS-G12V (setting [3]), 278 nM; in the assay with AsPC-1 cells (ASPC1, 2 h, KRAS-G12D, 2 hours), 670 nM.

Take `Cc1cc2[nH]ncc2c(-c2nccc3c2sc2nc(OC[C@@]45CCCN4C[C@H](F)C5)nc(N4CCC[C@@]5(CNC(=O)O5)C4)c23)c1C(F)(F)F` [Ex-196, (5R)-7-(2-(((2R,7aS)-2-fluorotetrahydro-1H-pyr-rolizin-7a(5)-yl)methoxy)-8-(6-methyl-5-(trifluoro-methyl)-1H-indazol-4-yl)-pyrido[4′,3′:4,5]thieno[2,3-d]pyrimidin-4-yl)-1-oxa-3,7-diazaspiro[4.5]decan-2-one]: the half-inhibitory concentration (IC50) is 35.8 nM on KRAS-WT (setting [1]), 8.06 nM at KRAS-G12D (setting [2]), 19.4 nM on KRAS-G12V (setting [3]) and 1870 nM in the assay with AsPC-1 cells (setting [4]).

With `C[C@@]1(O)COCCN(c2nc(OC[C@@]34CCCN3C[C@H](F)C4)nc3sc4c(-c5c6c(cc7[nH]ncc57)CCC6=C(F)F)nccc4c23)C1` [Ex-177, (6S)-4-(8-(5-(difluoro-methylene)-1,5,6,7-tetrahydrocyclopenta [f]indazo1-4-yl)-2-(((2R,7aS)-2-fluoro-tetrahydro-1H-pyr-rolizin-7a(5H)-yl)-methoxy)pyrido[4′,3′: 4,5]thieno[2,3-d]pyr-imidin-4-yl)-6-methyl-1,4-oxazepam-6-ol], the IC50 at KRAS-WT (setting [5]) was found to be 77.4 nM; on KRAS-G12D (setting [6]) it was 23.1 nM; at KRAS-G12V (setting [7]), 61.7 nM; in the assay on AsPC-1 cells (setting [8]), 248 nM.

`Cc1cc2[nH]ncc2c(-c2nccc3c2sc2nc(OC[C@@]45CCCN4C[C@H](F)C5)nc(N4CCOC[C@@](C)(O)C4)c23)c1C(C)(F)F` [Ex-41, (6S)-4-(8-(5-(1,1-difluoroethyl)-6-methyl-1H-indazol-4-yl)-2-(((2R,7aS)-2-fluorotetrahydro-1H-pyrrolizin-7a(5H)-yl)methoxy)pyrido[4′,3′:4,5]thi-eno[2,3-d]pyrimidin-4-yl)-6-methyl-1,4-oxazepan-6-ol]: the half-maximal inhibitory concentration (IC50) at KRAS-WT (setting [1]) was 260 nM; on KRAS-G12D (setting [2]), 121 nM; on KRAS-G12V (setting [3]), 166 nM; with AsPC-1 cells (ASPC1, 2 h, KRAS-G12D, 2 hours), 635 nM.
